From BindingDB's records for doi:10.1016/j.bmcl.2008.01.067 (Spot-Ea3857, 2008)

Target: Peroxisome proliferator-activated receptor gamma (Homo sapiens) (UniProt P37231)
Experiment: Agonist activity at human PPARgamma at 100 uM by GAL4 transactivation assay relative to Rosiglitazone

`COC(=O)C(Cc1ccc(OCCN2CCC(C)(C)c3cc(C(N=O)c4ccccc4)ccc32)cc1)C(=O)OC` (centres undefined) [dimethyl 2-(4-(2-(6-((hydroxyimino)(phenyl)methyl)-4,4-dimethyl-3,4-dihydroquinolin-1(2H)-yl)ethoxy)benzyl)malonate] and `COC(=O)C(Cc1ccc(OCCN2CCC(C)(C)c3cc(C(=O)c4ccccc4)ccc32)cc1)C(=O)OC` [dimethyl 2-(4-(2-(6-benzoyl-4,4-dimethyl-3,4-dihydroquinolin-1(2H)-yl)ethoxy)benzyl)malonate] are within 1.5-fold of each other in EC50: 195 nM for the first, 152 nM for the second.

`CCOC(=O)C(Cc1ccc(OCCN2CCC(C)(C)c3cc(C(N=O)c4ccccc4)ccc32)cc1)OCC` (centres undefined) [ethyl 2-ethoxy-3-(4-(2-(6-((hydroxyimino)(phenyl)methyl)-4,4-dimethyl-3,4-dihydroquinolin-1(2H)-yl)ethoxy)phenyl)propanoate] and `CCO[C@@H](Cc1ccc(OCCc2ccc(OS(C)(=O)=O)cc2)cc1)C(=O)O` [(2S)-2-ethoxy-3-(4-{2-[4-(methanesulfonyloxy)phenyl]ethoxy}phenyl)propanoic acid] are within 1.5-fold of each other in EC50: 48 nM for the first, 37 nM for the second.
